Structures are written as SMILES. Where two headings read alike, the source gives them in different places.

In assay [1] the target is T1, full length recombinant Pim-2 protein (Homo sapiens, UniProt Q9P1W9).
T1 construct: by full length recombinant Pim-1, Pim-2, or Pim-3 protein; hexahistidine tag followed by a thrombin cleavage site (N); made in house; host or cells: Sf9 (baculovirus) or E. coli (pET28)
Kind of assay: Pim-2 enzyme assay (HTRF, phosphorylation of biotinylated-BAD (S112) peptide). In kind it is biochemical. Conditions: enzyme assay, Pim-2; read-out: Pim2_IC50. The essentials:
(§1)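 Full-length His-tagged Pim-1 or Pim-2 (Sf9 or E. coli expressed, purified) phosphorylated biotinylated BAD (S112) peptide in 60 mM Hepes pH 7.0, 0.05% BSA, 2 mM DTT. Reaction stopped with 3 mM EDTA; phospho-BAD read by HTRF with Eu anti-phospho-BAD antibody and streptavidin-APC. IC50 from percent of control by 4-parameter logistic fit.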
On the technique in general: TR-FRET usually uses a lanthanide donor and a delayed reading to cut background.

In assay [2] the target is T2, Pim-1 stably transfected into the U2OS human osteogenic sarcoma line (Homo sapiens, UniProt P11309).
T2 construct: expressed in transfected cells; host or cells: U2OS human osteogenic sarcoma line
Kind of assay: Pim cell assay, phospho-BAD normalized against total BAD, U2OS stably transfected with Pim-1. The settings on record: read-out: Pim1_Cell_IC50. In kind it is cell-based. The essentials:
(§2)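 U2OS cells stably expressing Pim-1 or Pim-2 were plated overnight at 37 °C, then dosed over a 10-point curve (final 0.3% DMSO; DMSO alone as high control). Lysates assayed for phospho- and total BAD by Meso Scale immunoassay; % phosphoprotein = (2×phospho)/(phospho+total)×100.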

The target in assay [3] is T3, Pim-2 stably transfected into the U2OS human osteogenic sarcoma line (Homo sapiens, UniProt Q9P1W9).
T3 construct: expressed in transfected cells; host or cells: U2OS human osteogenic sarcoma line
Kind of assay: Pim cell assay, phospho-BAD normalized against total BAD, U2OS stably transfected with Pim-2. Further: high dose 31.6 µM. The settings on record: read-out: Pim2_Cell_IC50. In kind it is cell-based. Put shortly:
as §2

The target in assay [4] is T4, full length recombinant Pim-3 protein (Homo sapiens, UniProt Q86V86).
T4 construct: by full length recombinant Pim-1, Pim-2, or Pim-3 protein; purchased Millipore (UK)
Kind of assay: Pim-3 enzyme assay (HTRF, phosphorylation of biotinylated-BAD (S112) peptide). The assay is classed as biochemical. The settings on record: read-out: Pim3 IC50. Put shortly: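 Full-length recombinant Pim-3 phosphorylates biotinylated BAD (S112) peptide in 60 mM Hepes pH 7.0, 0.05% BSA, 2 mM DTT; reaction stopped with 3 mM EDTA. Phospho-BAD detected by HTRF (Eu anti-phospho-BAD S112 antibody, streptavidin-APC). IC50 from percent-of-control values fitted to a 4-parameter logistic model.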

The target in assay [5] is T5, full length recombinant Pim-1 protein (Homo sapiens, UniProt P11309).
T5 construct: by full length recombinant Pim-1, Pim-2, or Pim-3 protein; hexahistidine tag followed by a thrombin cleavage site (N); made in house; host or cells: Sf9 (baculovirus) or E. coli (pET28)
Kind of assay: Pim-1 enzyme assay (HTRF, phosphorylation of biotinylated-BAD (S112) peptide). The assay is classed as biochemical. The settings on record: enzyme assay, Pim-1; read-out: Pim_1_IC50. The essentials:
as §1

Where [6] appears, read: U2OS cells stably transfected with Pim-1, phospho-BAD, high dose […].
The mark [7] stands for this setting: U2OS cells stably transfected with Pim-2, phospho-BAD, high dose […].

T3 sequence (Q9P1W9 whole entry): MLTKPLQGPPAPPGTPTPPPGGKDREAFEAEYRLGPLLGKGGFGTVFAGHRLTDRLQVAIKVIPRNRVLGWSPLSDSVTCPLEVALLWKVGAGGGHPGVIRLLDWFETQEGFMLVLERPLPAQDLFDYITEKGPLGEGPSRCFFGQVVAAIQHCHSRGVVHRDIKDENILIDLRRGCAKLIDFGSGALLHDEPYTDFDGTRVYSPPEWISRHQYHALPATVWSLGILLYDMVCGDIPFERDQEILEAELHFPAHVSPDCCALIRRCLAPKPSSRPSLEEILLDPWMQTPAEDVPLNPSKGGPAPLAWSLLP
T1 sequence (Q9P1W9 whole entry): as above
T2 sequence (P11309 whole entry): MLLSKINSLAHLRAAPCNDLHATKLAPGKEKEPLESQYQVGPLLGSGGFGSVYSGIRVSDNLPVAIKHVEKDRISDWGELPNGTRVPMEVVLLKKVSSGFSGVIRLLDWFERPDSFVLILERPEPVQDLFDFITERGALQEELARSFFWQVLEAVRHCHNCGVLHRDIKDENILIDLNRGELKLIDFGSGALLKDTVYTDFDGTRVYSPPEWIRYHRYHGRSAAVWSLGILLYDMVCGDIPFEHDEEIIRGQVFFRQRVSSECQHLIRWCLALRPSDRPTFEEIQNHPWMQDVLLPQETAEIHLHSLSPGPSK
T5 sequence (P11309 whole entry): as above

Consider `NC1CCN(c2cncc(-c3n[nH]c4ccc(Br)cc34)n2)CC1` [Example 1, 1-(6-(5-bromo-1H-indazol-3-yl)pyrazin-2-yl)piperidin-4-amine], for which the IC50 stood at 23 nM in assay [1]; 788 nM in assay [2] (setting [6]); 8730 nM in assay [3] (setting [7]); 11 nM in assay [4]; 31 nM in assay [5].

With `NC1CCN(c2cncc(-c3n[nH]c4ccc(-c5cc(C(=O)NC6CC6)ccc5F)cc34)n2)CC1` [Example 3, 3-(3-(6-(4-aminopiperidin-1-yl)pyrazin-2-yl)-1H-indazol-5-yl)-N-cyclopropyl-4-fluorobenzamide], the IC50 in assay [1] amounted to 13 nM; in assay [2] (setting [6]) it was 3680 nM; in assay [3] (setting [7]) it was 7390 nM; in assay [4], 9 nM; in assay [5], 8 nM.

As for `NC1CCN(c2cncc(-c3n[nH]c4ccc(-c5ccnc(N6CCOCC6)n5)cc34)n2)CC1` [Example 98, 1-(6-(5-(2-(4-morpholinyl)-4-pyrimidinyl)-1H-indazol-3-yl)-2-pyrazinyl)-4-piperidinamine], the IC50 was 72 nM in assay [1], greater than 31600 nM in assay [3] (setting [7]), 2 nM in assay [4] and 1 nM in assay [5].

With `c1cc2[nH]nc(-c3cncc(O[C@@H]4CCCNC4)n3)c2cc1-c1cncc(C2CC2)n1` [Example 118, 5-(6-cyclopropyl-2-pyrazinyl)-3-(6-((3R)-3-piperidinyloxy)-2-pyrazinyl)-1H-indazole], the IC50 came out at 24 nM in assay [1], 41 nM in assay [2] (setting [6]), 5750 nM in assay [3] (setting [7]) and 1 nM in assay [4].

For `CN1CCOc2cc(-c3ccc4[nH]nc(-c5cncc(O[C@@H]6CCCNC6)n5)c4c3)ccc21` [Example 123, 4-methyl-7-(3-(6-((3R)-3-piperidinyloxy)-2-pyrazinyl)-1H-indazol-5-yl)-3,4-dihydro-2H-1,4-benzoxazine], the IC50 in assay [1] came out at 10 nM; in assay [3] (setting [7]) it was 3520 nM; in assay [4], 6 nM; in assay [5] it was 1 nM.

For `c1cc2c(cc1-c1ccc3[nH]nc(-c4cncc(O[C@@H]5CCCNC5)n4)c3c1)OCCO2` [Example 140, 5-(2,3-dihydro-1,4-benzodioxin-6-yl)-3-(6-((3R)-3-piperidinyloxy)-2-pyrazinyl)-1H-indazole], the IC50 was 19 nM in assay [1], 7780 nM in assay [3] (setting [7]), 6 nM in assay [4] and 2 nM in assay [5].

Turning to `C(=C\C1CC1)/c1ccc2[nH]nc(-c3cncc(O[C@@H]4CCCNC4)n3)c2c1` [Example 147, 5-((E)-2-cyclopropylethenyl)-3-(6-((3R)-3-piperidinyloxy)-2-pyrazinyl)-1H-indazole], the IC50 in assay [1] came to 105 nM; in assay [2] (setting [6]), 724 nM; in assay [4], 13 nM; in assay [5] it was 7 nM.

As to `C1=C(c2ccc3[nH]nc(-c4cncc(O[C@@H]5CCCNC5)n4)c3c2)CCOC1` [Example 148, 5-(3,6-dihydro-2H-pyran-4-yl)-3-(6-((3R)-3-piperidinyloxy)-2-pyrazinyl)-1H-indazole], the IC50 came out at 25 nM in assay [1], 314 nM in assay [2] (setting [6]), 7 nM in assay [4] and 6 nM in assay [5].

As for `c1cnnc(-c2ccc3[nH]nc(-c4cncc(O[C@@H]5CCCNC5)n4)c3c2)c1` [Example 149, 3-(6-((3R)-3-piperidinyloxy)-2-pyrazinyl)-5-(3-pyridazinyl)-1H-indazole], the IC50 in assay [1] was found to be 48 nM; in assay [2] (setting [6]), 292 nM; in assay [4] it was 7 nM; in assay [5] it was 6 nM.

Regarding `COc1nccc(-c2ccc3[nH]nc(-c4cncc(O[C@@H]5CCCNC5)n4)c3c2)n1` [Example 152, 5-(2-methoxy-4-pyrimidinyl)-3-(6-((3R)-3-piperidinyloxy)-2-pyrazinyl)-1H-indazole], the IC50 is 36 nM in assay [1], 1060 nM in assay [2] (setting [6]), 7 nM in assay [4] and 7 nM in assay [5].

For `CC(C)Oc1nccc(-c2ccc3[nH]nc(-c4cncc(O[C@@H]5CCCNC5)n4)c3c2)n1` [Example 153, 5-(2-(1-methylethoxy)-4-pyrimidinyl)-3-(6-((3R)-3-piperidinyloxy)-2-pyrazinyl)-1H-indazole], the IC50 came to 165 nM in assay [1], 174 nM in assay [2] (setting [6]), 27 nM in assay [4] and 12 nM in assay [5].

`C1=C(c2ccc3[nH]nc(-c4cncc(O[C@@H]5CCCNC5)n4)c3c2)COCC1` [Example 154, 5-(5,6-dihydro-2H-pyran-3-yl)-3-(6-((3R)-3-piperidinyloxy)-2-pyrazinyl)-1H-indazole]: the IC50 in assay [1] stood at 71 nM; in assay [2] (setting [6]), 772 nM; in assay [4], 16 nM; in assay [5], 15 nM.

As to `O=C(NC1CC1)c1ccnc(-c2ccc3[nH]nc(-c4cncc(O[C@@H]5CCCNC5)n4)c3c2)c1` [Example 157, N-cyclopropyl-2-(3-(6-((3R)-3-piperidinyloxy)-2-pyrazinyl)-1H-indazol-5-yl)-4-pyridinecarboxamide], the IC50 in assay [1] was determined as 32 nM; in assay [2] (setting [6]), 1740 nM; in assay [4] it was 12 nM; in assay [5], 12 nM.

Regarding `O=C(NC1CC1)c1cncc(-c2ccc3[nH]nc(-c4cncc(O[C@@H]5CCCNC5)n4)c3c2)c1` [Example 159, N-cyclopropyl-5-(3-(6-((3R)-3-piperidinyloxy)-2-pyrazinyl)-1H-indazol-5-yl)-3-pyridinecarboxamide], the IC50 worked out at 71 nM in assay [1], 750 nM in assay [2] (setting [6]), 1 nM in assay [4] and 2 nM in assay [5].

Turning to `COc1cc(-c2ccc3[nH]nc(-c4cncc(O[C@@H]5CCCNC5)n4)c3c2)ccn1` [Example 160, 5-(2-methoxy-4-pyridinyl)-3-(6-((3R)-3-piperidinyloxy)-2-pyrazinyl)-1H-indazole], the IC50 in assay [1] stood at 24 nM; in assay [2] (setting [6]), 108 nM; in assay [4] it was 12 nM; in assay [5], 5 nM.

As for `Fc1cccc(F)c1-c1ccc2[nH]nc(-c3cncc(N4CCOCC4)n3)c2c1` [Example 169, 5-(2,6-difluorophenyl)-3-(6-(4-morpholinyl)-2-pyrazinyl)-1H-indazole], the IC50 in assay [1] turned out to be 1640 nM; in assay [2] (setting [6]) it was 2410 nM; in assay [4] it was 92 nM; in assay [5], 69 nM.

For the compound `Fc1cccc(F)c1-c1ccc2[nH]nc(-c3cncc(O[C@H]4CNC[C@@H](F)C4)n3)c2c1` [Example 196, 5-(2,6-difluorophenyl)-3-(6-(((3R,5S)-5-fluoro-3-piperidinyl)oxy)-2-pyrazinyl)-1H-indazole], the IC50 turned out to be 19 nM in assay [1], 146 nM in assay [2] (setting [6]), 6 nM in assay [4] and 4 nM in assay [5].

As to `Fc1cccc(F)c1-c1ccc2[nH]cc(-c3cncc(NC4CCCCC4)n3)c2c1` [Example 202, N-cyclohexyl-6-(5-(2,6-difluorophenyl)-1H-indol-3-yl)-2-pyrazinamine], the IC50 amounted to 414 nM in assay [1], 8850 nM in assay [2] (setting [6]), 51 nM in assay [4] and 21 nM in assay [5].

With `N[C@@H]1CCCN(c2cncc(-c3c[nH]c4ccc(-c5c(F)cccc5F)cc34)n2)C1` [Example 203, (3R)-1-(6-(5-(2,6-difluorophenyl)-1H-indol-3-yl)-2-pyrazinyl)-3-piperidinamine], the IC50 in assay [1] is 184 nM; in assay [2] (setting [6]), 3050 nM; in assay [4], 18 nM; in assay [5] it was 8 nM.

On to `O=C1CN(c2cncc(-c3c[nH]c4ccc(-c5c(F)cccc5F)cc34)n2)CCN1` [Example 204, 4-(6-(5-(2,6-difluorophenyl)-1H-indol-3-yl)-2-pyrazinyl)-2-piperazinone], for which the IC50 in assay [1] came to 987 nM; in assay [2], 2230 nM; in assay [4], 98 nM; in assay [5] it was 80 nM.

For `NC1CCN(c2cncc(-c3c[nH]c4ccc([N+](=O)[O-])cc34)n2)CC1` [Example 232, 1-(6-(5-nitro-1H-indol-3-yl)pyrazin-2-yl)piperidin-4-amine], the IC50 is 65 nM in assay [1], greater than 15800 nM in assay [3], 28 nM in assay [4] and 47 nM in assay [5].

Consider `COC(=O)c1ccc2[nH]cc(-c3cncc(N4CCC(N)CC4)n3)c2c1` [Example 236, methyl 3-(6-(4-aminopiperidin-1-yl)pyrazin-2-yl)-1H-indole-5-carboxylate], for which the IC50 was found to be 44 nM in assay [1], 5820 nM in assay [3], 7 nM in assay [4] and 5 nM in assay [5].

These data come from patent publication US9090593B2, “Bicyclic compounds as Pim inhibitors” (AMGEN INC., priority 2010, dated 2015).
